Here are results for eight compounds from PMC6162817 (Toxins, 2018).

Experiment [1] has as its target RTA depurination activity on yeast ribosomes (Ricinus communis, UniProt P02879). The experiment is described as follows: biochemical. The class given is biochemical. As to conditions: for IC50: Yeast Ribosome IC50.
In experiment [2] the target is RTA depurination activity on rat liver ribosomes (Ricinus communis, UniProt P02879). The experiment is described as follows: biochemical. The class given is biochemical.
Experiment [3] addresses RTA–yeast ribosome interaction (Ricinus communis, UniProt P02879). The class given is binding.

“And” between values parts separate entries of the source, which are not always exact repeats. Equal values may be shown once. Residues, ends and D or L forms follow the SMILES beside them. No end group written: not given here.

`CC(C)C[C@H](NC(=O)CN)C(=O)N[C@@H](Cc1ccccc1)C(=O)N[C@@H](CC(=O)O)C(=O)O` [P4, G112LFD115] (H-GLFD-OH): the midpoint of inhibition in experiment [1], the IC50, lay at 102 ± 45 µM. On to DDMGFGLFD [P9], for which the results for the IC50 in experiment [1] and in experiment [2] were 15 ± 1.5 µM and 142 ± 61 µM, respectively. For DMGFGLFD [P8, D108MGFGLFD115] the same measures were 23 ± 4.4 µM and 267 ± 80 µM. As for FGLFD [P5, F111GLFD115], in experiment [1], the IC50 was determined as 121 ± 44 µM.

As to DDDMGFGLFD [P10], the figures for the IC50 in experiment [1] and in experiment [2] were 7.9 ± 1.7 µM and 83 ± 18 µM, respectively. On to SDDDMGFGLFD [P11], for which, in experiment [1], the “Imax (maximal inhibition), yeast ribosome” value is 90% and 89.7 ± 3.0%; the half-inhibitory concentration (IC50) is 5 µM and 4.7 µM. In addition, in experiment [2], 30.8 ± 6.3 µM corresponded to half-maximal inhibition (IC50); the “Imax (maximal inhibition), rat ribosome” value was 90% and 89.4 ± 4.2%.

On to MGFGLFD [P7, M109GFGLFD115], for which the IC50 in experiment [1] was 34 ± 9.5 µM.

As to GFGLFD [P6, G110FGLFD115], the “inhibition of ribosome binding to RTA” value in experiment [3] was under 100%. Besides, the IC50 in experiment [1] turned out to be 63 ± 13 µM.
